IC50 data for 46 molecules are collected here from patent US20080194546A1, “Pyrido-, Pyrazo- and Pyrimido-Pyrimidine Derivatives as mTOR Inhibitors” (KuDOS Pharmaceuticals Limited, priority 2005, published 2008).

pIC50: −log10 of the molar value. Bounds are passed on as bounds.

The target of the first assay is T1, mTOR (Homo sapiens, UniProt P42345).
T1 construct: mTOR protein was isolated from HeLa cell cytoplasmic extract by immunoprecipitation; endogenous in cells; host or cells: HeLa cell cytoplasmic extract (immunoprecipitate)
The assay can be described thus: Biological Assay: mTOR enzyme activity, mTOR immunoprecipitated from HeLa cell cytoplasmic extract, recombinant PHAS-1 as substrate. The format is biochemical. Conditions: Biological Assay, upper bounds; read-out: IC50 values against mTOR.
Source text: For mTOR enzyme activity assays, mTOR protein was isolated from HeLa cell cytoplasmic extract by immunoprecipitation, and activity determined essentially as described previously using recombinant PHAS-1 as a substrate (ref. 21).
Consider `C[C@@H]1CN(c2nc(N3CCOCC3)c3ccc(Nc4cccc5cnccc45)nc3n2)C[C@H](C)O1` [Example 2f], for which the pIC50 – broadly, the IC50 on a negative log10 scale, so that one unit is a factor of ten – was above 5.00.

Take `C[C@@H]1CN(c2nc(N3CCOCC3)c3ccc(Nc4nc5cncnc5[nH]4)nc3n2)C[C@H](C)O1` [Example 2au]: the pIC50 is above 5.00.

With `C[C@@H]1CN(c2nc(N3CCOCC3)c3ccc(-c4cccc5cccnc45)nc3n2)C[C@H](C)O1` [Example 1ay], the pIC50 was above 5.00.

On to `C[C@@H]1CN(c2nc(N3CCOCC3)c3ccc(Nc4ccc5cccc(O)c5n4)nc3n2)C[C@H](C)O1` [Example 2ay], for which the pIC50 is above 5.00.

With `Cc1cc(Nc2ccc3c(N4CCOCC4)nc(N4C[C@@H](C)O[C@@H](C)C4)nc3n2)no1` [Example 2x], the pIC50 was above 5.00.

For `CSc1nc2ccc(Nc3ccc4c(N5CCOCC5)nc(N5C[C@@H](C)O[C@@H](C)C5)nc4n3)cc2s1` [Example 2ad], the pIC50 was above 6.00.

As for `C[C@@H]1CN(c2nc(N3CCOCC3)c3ccc(Nc4cnccn4)nc3n2)C[C@H](C)O1` [Example 2bc], the negative logarithm of the IC50 (pIC50) is above 5.00.

Take `CC1CCC(Nc2ccc3c(N4CCOCC4)nc(N4C[C@@H](C)O[C@@H](C)C4)nc3n2)CC1` (stereo partly shown) [Example 2al]: the pIC50 is above 5.00.

Turning to `C[C@@H]1CN(c2nc(N3CCOCC3)c3ccc(Nc4ccc(Cl)cc4)nc3n2)C[C@H](C)O1` [Example 2k], the pIC50 was above 6.00.

The next assay has as its system phosphorylation of Serine 473 in Akt in MDA-MB-468 cells. The assay can be described thus: In Vitro phospho-Ser473 Akt Assay (Acumen Explorer). The class given is cell-based. The settings on record: Homo sapiens, MDA-MB-468, read-out: IC50 values against mTOR (phospho-Ser473 Akt assay).
Take `CCN(C)C(=O)c1cc(-c2ccc3c(N4CCOC[C@@H]4C)nc(N4CCOC[C@@H]4C)nc3n2)ccc1OC` [Example 13u]: the pIC50 is above 4.96.

As to `CC(C)CC(=O)NCc1cc(-c2ccc3c(N4CCOC[C@@H]4C)nc(N4CCOC[C@@H]4C)nc3n2)ccc1F` [Example 15y], the pIC50 was above 4.96.

Regarding `C[C@H]1COCCN1c1nc(-c2cccnc2F)nc2nc(-c3cccc(CO)c3)ccc12` [Example 29u], the pIC50 was above 4.96.

For the molecule `CNC(=O)c1ccc(-c2ccc3c(N4CCOC[C@@H]4C)nc(N4CCOC[C@@H]4C)nc3n2)cc1` [Example 11ak], the pIC50 is above 7.00.

With `C[C@H]1COCCN1c1nc(N2CCOC[C@@H]2C)c2ccc(-c3ccc(F)nc3)nc2n1` [Example 11ah], the pIC50 was above 4.96.

`Cc1ccc(-c2cnc3c(N4CCOC[C@@H]4C)nc(N4C[C@@H](C)O[C@@H](C)C4)nc3n2)cc1` [Example 22b]: the pIC50 is above 4.96.

Consider `C[C@H]1COCCN1c1nc(-c2cnn(C)c2)nc2nc(-c3cccc(CO)c3)ccc12` [Example 29v], for which the pIC50 was above 4.96.

Take `COc1ccc(-c2ccc3c(N4CCOC[C@@H]4C)nc(N4CCC(Cc5ccccc5)CC4)nc3n2)cc1CO` [Example 28al]: the pIC50 was above 4.96.

As to `CC(C)C(=O)NCc1cc(-c2ccc3c(N4CCOC[C@@H]4C)nc(N4CCOC[C@@H]4C)nc3n2)ccc1F` [Example 15w], the pIC50 is above 4.96.

Regarding `COc1ccc(CCNCc2cc(-c3ccc4c(N5CCOCC5C)nc(N5CCOC[C@@H]5C)nc4n3)ccc2OC)cc1` (stereo partly shown) [Example 14bd], the pIC50 was above 7.00.

Consider `C[C@H]1COCCN1c1nc(N2CCC(CO)CC2)nc2nc(-c3cccc(C(N)=O)c3)ccc12` [Example 12h], for which the pIC50 was above 4.96.

As to `C[C@H]1COCCN1c1nc(-c2ccncc2)nc2nc(-c3cccc(CO)c3)ccc12` [Example 29q], the pIC50 is above 4.96.

For `COc1ccc(-c2ccc3c(N4CCOCC4C)nc(N4CCOC[C@@H]4C)nc3n2)cc1CNC1CCOCC1` (stereo partly shown) [Example 14aq], the pIC50 is above 7.00.

With `COc1ccc(-c2ccc3c(N4CCOC[C@@H]4C)nc(Nc4cccnc4)nc3n2)cc1CO` [Example 28o], the negative logarithm of the IC50 (pIC50) is above 4.96.

As to `C[C@H]1COCCN1c1nc(N2CCC(C(N)=O)CC2)nc2nc(-c3ccc(Cl)cc3)ccc12` [Example 28dj], the pIC50 was above 4.96.

Turning to `CNCCNc1nc(N2CCOC[C@@H]2C)c2ccc(-c3ccc(OC)c(CO)c3)nc2n1` [Example 28bv], the pIC50 is above 4.96.

Regarding `C[C@@H]1CCCCN1c1nc(N2CCOC[C@@H]2C)c2ccc(-c3ccc(Cl)cc3)nc2n1` [Example 28dg], the pIC50 was above 4.96.

Turning to `COc1ccc(-c2ccc3c(N4CCOCC4C)nc(N4CCOC[C@@H]4C)nc3n2)cc1CNC1CCCCCCC1` (stereo partly shown) [Example 14bf], the pIC50 is above 7.00.

As to `C[C@H]1COCCN1c1nc(N2CCOC[C@@H]2C)c2ccc(-c3cccc(C(=O)NCC(F)(F)F)c3)nc2n1` [Example 13f], the negative logarithm of the IC50 (pIC50) is above 4.96.

Take `COc1ccc(-c2ccc3c(N4CCOC[C@@H]4C)nc(N4CCOC[C@@H]4C)nc3n2)cn1` [Example 11n]: the pIC50 is above 6.52.

Regarding `COc1ccc(-c2ccc3c(N4CCOC[C@@H]4C)nc(N4CCOC[C@@H]4C)nc3n2)cc1CNC1CC1` [Example 14al], the negative logarithm of the IC50 (pIC50) is above 7.00.

In the case of `COc1cccc(-c2nc(N3CCOC[C@@H]3C)c3ccc(-c4ccc(OC)c(CO)c4)nc3n2)c1` [Example 29o], the pIC50 was above 4.96.

Turning to `COc1ccc(-c2ccc3c(N4CCOC[C@@H]4C)nc(-c4cccc(C)c4)nc3n2)cc1CO` [Example 29n], the pIC50 is above 4.96.

With `C[C@H]1COCCN1c1nc(N2CCOC[C@@H]2C)c2ccc(-c3ccc(F)c(CNC4CC4)c3)nc2n1` [Example 14v], the pIC50 is above 4.96.

As for `C[C@H]1COCCN1c1nc(N2CCOC[C@@H]2C)c2ccc(-c3ccc(N)cc3)nc2n1` [Example 11az], the pIC50 was above 7.00.

Regarding `C[C@H]1COCCN1c1nc(N2CCOC[C@@H]2C)c2ccc(-c3ccc(CNCC(N)=O)o3)nc2n1` [Example 17j], the pIC50 is above 4.96.

For the molecule `CC(C)CC(=O)NCc1cccc(-c2ccc3c(N4CCOC[C@@H]4C)nc(N4CCOC[C@@H]4C)nc3n2)c1` [Example 15f], the pIC50 was above 4.96.

On to `CC(C)Oc1ccc(-c2ccc3c(N4CCOC[C@@H]4C)nc(N4CCOC[C@@H]4C)nc3n2)cc1C(N)=O` [Example 11cw, 5-[2,4-bis-((S)-3-methyl-morpholin-4-yl)-pyrido[2,3-d]pyrimidin-7-yl]-2-isopropoxy-benzamide], for which the negative logarithm of the IC50 (pIC50) was above 4.96.

Take `C[C@@H]1CN(c2nc(N3CCOC[C@@H]3C)c3ccc(-c4ccncc4)nc3n2)C[C@H](C)O1` [Example 11ce]: the pIC50 is above 4.96.

With `Cc1nn(C)c(C)c1-c1nc(N2CCOC[C@@H]2C)c2ccc(-c3cccc(CO)c3)nc2n1` [Example 29w], the pIC50 is above 4.96.

On to `COCCNc1nc(N2CCOC[C@@H]2C)c2ccc(-c3ccc(OC)c(CO)c3)nc2n1` [Example 28by], for which the pIC50 was above 4.96.

As to `CC(=O)NCc1cc(-c2ccc3c(N4CCOC[C@@H]4C)nc(N4CCOC[C@@H]4C)nc3n2)ccc1F` [Example 15t], the pIC50 is above 4.96.

Still in this assay, the particulars now being: Homo sapiens; MDA-MB-468 cells, 2 hours; read-out: IC50, phospho-Ser473 Akt assay (cellular IC50, measured by pAkt).
On to `C[C@H]1COCCN1c1nc(N2CCOC[C@@H]2C)c2ccc(-c3ccc4[nH]nc(N)c4c3)nc2n1` [Example 11ds, 5-[2,4-Bis-((S)-3-methyl-morpholin-4-yl)-pyrido[2,3-d]pyrimidin-7-yl]-1H-indazol-3-ylamine], for which the pIC50 is 7.22.

With `CC(C)S(=O)(=O)Nc1cccc(-c2ccc3c(N4CCOC[C@@H]4C)nc(N4CCOC[C@@H]4C)nc3n2)c1` [Example 25b], the pIC50 was 6.30.

For the molecule `C[C@H]1COCCN1c1nc(N2CCOCC2)nc2nc(-c3ccc(N)nc3)ccc12` [Example 28dl], the pIC50 was 6.53.

Still in this assay, the particulars now being: Homo sapiens; MDA-MB-468 cells, compounds of Formula I(B); read-out: IC50 values against mTOR (phospho-Ser473 Akt assay).
Consider `CNC(=O)c1cccc(-c2ccc3c(N4CCOC[C@@H]4C)nc(N4CCOC[C@@H]4C)nc3n2)c1` [Example 11ap], for which the pIC50 was above 7.00.

As for `COc1ccc(-c2ccc3c(N4CCOC[C@@H]4C)nc(N4CCOC[C@@H]4C)nc3n2)cc1CO` [Example 11a], the pIC50 is above 7.00.
